Data published in US20160374368A9, “Mimicking the Metabolic Effect of Caloric Restrictions by Administration of Glucose Anti-Metabolites to Enhance Positive Response in a Mammal” (The Iams Company, priority 2013, published 2016).

How the values were obtained:
hexokinase = settings: cited from earlier work
isolated rat hepatocytes = settings: cited from earlier work
rodents = settings: cited from earlier work
[1] = cited from earlier work
[2] = injected into a rat; cited from earlier work
cats = experiment: Behavioural assessment of play motivation in cats (weighted swing door); assay type: in vivo; settings: vs same diets without MH
Text: Twenty cats (N=20) of similar age (˜2.5 years), and split 10 female (5 lean and 5 moderately overweight) and 10 male (5 lean and 5 moderately overweight). To effectively test the effects of MH on energy metabolism dietary energy needs, intended to maintain weight, were provided equally between animals on a body weight basis; therefore, each cat received 45 kcal ME/kg body weight/d (females) and 50 kcal ME/kg body weight/d (males).
For two weeks prior to the initiation of the study cats were fed Iams® Original Chicken. Diets were presented in kibble form and cats were fed individually at 7:00 am each day and will be permitted 60 minutes to eat during food offerings. This feeding protocol were maintained throughout the entire study except on days in which fasted blood/calorimetry samples are obtained as cats were fed following the sampling period which was no later than 9:00 am. […]
Two walled stalls (each measuring: 100 cm W×100 cm L×75 cm H; Quenn City polymers, Dayton, Ohio), one classified as the start box and the other the goal box, each with a plexi-glass roof containing a 1 cm diameter hole in the center, were placed next to each other and connected via a swing door (23 cm W×18 cm H). […] Cats were assessed two times per dietary treatment on day 14 and again on day 37 at approximately 5 hrs post feeding. […]

Labrador Retrievers [3] = experiment: Serum Trp:LNAA ratio in dogs fed control diet or control diet +MH (HPLC amino acid analysis); assay type: in vivo; settings: 200 ppm MH in the diet
Text: Brain serotonin is known to influence the mood. Serotonin is synthesized in the brain from tryptophan, which uptake into the brain is dependent on the plasma ratio of tryptophan to the sum of other large neutral amino acids (Trp/LNAA). Other large amino acids include leucine, isoleucine, valine, phenylalanmine and tyrosine. It is well accepted that carbohydrate rich diets increase this ration and protein rich diets decrease the ration, in other words, when there is decrease in insulin sensitivity and a greater glycemic response, greater Trp/LNAA ratios are expected. Blood samples for amino acid analysis were collected from a total of 51 dogs fed a control diet or a control diet +MH. The blood samples were collected from two cohorts of Labrador Retrievers. Cohort 1 included 19 neutered Labrador Retrievers, 5 male and 14 female, ranged in age from 12.6 to 15.7 years old at the time of sampling. Cohort 2 included 32 neutered Labrador Retrievers, 9 males and 23 females ranged in age from 8.3 to 12.5 years old at the time of sampling. Each cohort was fed similar a control diet or a test diet where the only differences was inclusion of mHep enriched avocado juice concentrate targeted to supply 200 ppm MH in the diet. The avocado juice concentrate was derived from whole fruit (flesh, peel and pit) avocados. […]

[4] = cited from earlier work; remark: listed apart in the source
[5] = injected, rats, cited from earlier work
Labrador Retrievers [6] = experiment: Annual kennel assessment of affective behavior in dogs fed control diet or control diet+MH; assay type: in vivo
Text: Annual kennel assessments (period of 5 years) have been conducted on dogs fed a control diet or a control diet+MH. This assessment included two cohorts of Labrador Retrievers. Cohort 1 included 39 neutered Labrador Retrievers, 12 male and 27 female, ranged in age from 5.1 to 8.2 years old at the beginning of the test-feeding period (mean age at the beginning of the study 6.7 years). Cohort 2 included 41 neutered Labrador Retrievers, 12 males and 29 females ranged in age from 2.0 to 6.1 years old at the beginning of the test feeding period (mean age at the beginning of the study 4.0 years). Each cohort was fed a control diet or a test diet where the only differences was inclusion of mHep-enriched avocado extract targeted to supply 2 mg/kg body weight of MH. All researchers, lab assistants, and assessors were blinded to the feeding groups. Dogs were assessed during August and September each year. Each scorer was instructed to operate independently. Trained assessors were categorized as either familiar or unfamiliar to the dogs. The familiar assessors were people that worked with the dogs on a regular basis. […] Each assessing group was comprised of a handler and two scorers. All dogs were assessed with three people in the room with at least one familiar scorer in each group. This created a total of three possible conditions: familiar handler, two familiar scorers (Fam/Fam); familiar handler, one unfamiliar scorer, one familiar scorer (Fam/Unfam); unfamiliar handler, one unfamiliar scorer, one familiar scorer (Unfam/Unfam). The behaviors are outlined in Table 1. Calculating score: Assessors were asked to score dogs on a scale from 1-5 including half scores. For the behavior items, a score of 1 signified “Fails To Do” while 5 signified “Excellent”. For the demeanor items, a score of 1 signified “Strongly” while a score of 5 signified “Not at All”. All necessary items were reverse scored to allow higher scores to indicate a more favorable score and lower score to indicate a less favorable score. The sums of the corresponding behavior and demeanor items were used to calculate the score for each of the two behavior components. These scores were used to compare changes across years and between groups. [table]

[7] = 2 mg/kg body weight MH, vs control diet

OC[C@H]1OC[C@H](O)[C@@H](O)[C@@H]1O [1,5-Anhydro-D-Glucitol, 1,5-anhydro-D-glucitol]
enzymatic conversion to the 6-phosphate (hexokinase; compared with 2-deoxy-glucose): less efficient than that of 2-deoxy-glucose

O=P(O)(O)OC[C@H]1OC[C@H](O)[C@@H](O)[C@@H]1O [1,5-anhydro-D-glucitol-6-phosphate]
inhibition of hexokinase (hexokinase): allosteric (non-competitive) inhibitor of hexokinase

OC[C@H]1O[C@H](CO)[C@@H](O)[C@@H]1O [2,5-Anhydro-D-mannitol, 2,5-anhydro-D-mannitol]
effect on glucose formation and utilization (isolated rat hepatocytes): interfere in glucose formation and utilization

O=CC[C@@H](O)[C@H](O)[C@H](O)CO [2-deoxy-D-glucose]
side effects and toxicity (rodents; high doses): significant untoward side effects and toxicity have been observed
mimicking metabolic hallmarks of caloric restriction (rodents; rodents, long-term, lower dose): can mimic some of the major metabolic hallmarks of caloric restriction and enhanced longevity, including reduced body temperature, weight loss, and lower fasting insulin levels

CO[C@@H]([C@H](O)[C@H](O)CO)[C@@H](O)C=O [3-O-methylglucose]
metabolism of the analog ([1]; in contrast with 2-deoxy-D-glucose): not metabolized
responses to administration (prevention of glucose utilization as energy source) relative to 2-deoxyglucose ([1]; rats): about seven times weaker than those to 2-deoxyglucose

O=C[C@H](O)[C@@H](O)[C@H](O)[C@H](S)CO [5-Thioglucose, 5-thio-D-glucose]
excreted unchanged in urine [2]: 97%

O=C(CO)[C@@H](O)[C@@H](O)[C@H](O)[C@H](O)CO [mannoheptulose]
motivation to play (cats): significantly greater motivation to play
Trp:LNAA concentrations, fasting vs 4 hrs post fed (Labrador Retrievers [3]; Cohort 1 (older dogs), P>0.05): no differences
Trp:LNAA concentrations, fasting vs 4 hrs post fed (Labrador Retrievers [3]; old and young cohorts pooled): no differences
mannoheptulose ingested appearing in urine ([4]; after oral administration): About 5%
safety of oral doses ([4]; doses of 10 grams, humans, orally): safely administered
remained in the body ([5]; a day after the injection): 5%
excreted unchanged [5]: 66%
metabolized [5]: 29%
comfort in new areas score (Labrador Retrievers [6]; 2 mg/kg body weight MH, unfamiliar/unfamiliar condition, vs control diet): significantly better response
score for ability to handle new areas (Labrador Retrievers [6]; [7]): higher scores
score for social interaction (Labrador Retrievers [6]; [7]): higher scores
social interaction score, difference between groups (Labrador Retrievers [6]; fam/fam or unfam/unfam condition): not different
